Series [1] deals with Growth hormone secretagogue receptor type 1 (Homo sapiens, UniProt Q92847).
Description: Displacement of [125I]ghrelin from human GHSR assessed as inhibition constant by competitive binding assay
Series [2] is described as follows: Ratio of drug concentration in rat brain to plasma at po administration measured after 1 hr.

SMILES strings stand for the structures.

Chain of Growth hormone secretagogue receptor type 1 (Q92847 whole entry): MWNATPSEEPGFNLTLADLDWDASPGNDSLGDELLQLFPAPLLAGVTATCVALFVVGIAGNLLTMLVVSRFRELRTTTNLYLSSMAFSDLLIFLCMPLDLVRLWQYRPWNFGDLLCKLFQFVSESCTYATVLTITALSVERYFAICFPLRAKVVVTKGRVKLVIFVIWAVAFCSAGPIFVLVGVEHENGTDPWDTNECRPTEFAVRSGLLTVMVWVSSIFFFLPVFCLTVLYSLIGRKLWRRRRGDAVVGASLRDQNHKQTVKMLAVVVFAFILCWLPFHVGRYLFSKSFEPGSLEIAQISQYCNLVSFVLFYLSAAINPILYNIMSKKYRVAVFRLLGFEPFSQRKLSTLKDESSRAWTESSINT

Take `CCc1nc(N)nc(N)c1-c1ccc(NCc2ccc(OCCF)cc2)cc1`: in series [1], the Ki (in general, a dissociation constant, usually derived from enzyme kinetics or from competition with a known ligand) is > 5000 nM.

With `Nc1nc(N)c(-c2ccc(NCc3ccc(Cl)cc3)cc2)c(COCc2ccccc2)n1`, the Kp – broadly, tissue or fluid exposure divided by exposure in the circulation – at 1 h in series [2] was 3.05. The molecule further came in with a Ki in series [1] of 108 nM.

For the origin of these results see ChEMBL document CHEMBL5579799, “Synthesis and biological evaluation of novel 18F-labeled 2,4-diaminopyrimidine derivatives for detection of ghrelin receptor in the brain” (Bioorg Med Chem Lett, 2024).
